Results from paper PMC7556346 (Cell chemical biology, 2020).
“Also recorded” adds a separate entry of the source.

Columns and labels:
CTD110.6 antibody = CTD110.6 antibody binding on glycopeptide microarrays
[1] = tested on: Wheat Germ Agglutinin (WGA); test: Lectin binding on microarray; conditions: control glycans on the GP1 array; TSM binding buffer pH 7.4, 1 hr, room temperature

CC(=O)N[C@H]1C(O)O[C@H](CO)[C@H](O)[C@@H]1O (stereo partly drawn) [GalNAc]
effect of free GalNAc on CTD110.6 non-specific binding (hapten) (CTD110.6 antibody; GP2 array printed at 100 μM, 20 mM GalNAc): specificity can be restored; also recorded: can be prevented

CC(=O)N[C@H]1C(O)O[C@H](CO)[C@@H](O)[C@@H]1O (stereo partly drawn) [GlcNAc]
effect of free GlcNAc on CTD110.6 binding (hapten competition) (CTD110.6 antibody; GP1 array, 20 mM GlcNAc): completely abolished

chitin
binding of WGA to control glycans [1]: exhibited lectin binding with WGA
